Data set [1] concerns HL-60 cells. The experiment in a line: Cell cycle analysis by flow cytometry. The data set is classed as cell-based, human. The conditions noted are these: 10^−7M, 72 hr. Here is the method: For cell cycle analysis, cells were exposed to 10^−7M 1,25(OH)2D3, 10^−7M paricalcitol or vehicle control for either 3 or 4 days. Total cells, both in suspension and adherent, were collected, washed, suspended in cold PBS. Then cells were fixed in 75% chilled methanol and stained with propidium iodine. Cell cycle status was analyzed on a Becton Dickinson Flow Cytometer.
Cell cycle analysis was performed as follows: after treatment of 5×10^4 of cells with a selected compound, cells were collected, washed and suspended in cold PBS. Cells were fixed in chilled 75% methanol and stained with propidium iodine. Cell cycle status was analyzed on a Becton Dickinson Flow Cytometer used standart protocols.
For orientation: Flow cytometry measures light scatter and fluorescence of single cells or particles in a stream.

For data set [2], the system named is 24-hydroxylase mRNA. Briefly: RT-PCR of 24-hydroxylase mRNA in HT-29 cells. The data set is classed as cell-based, human. The conditions noted are these: 10^−7M.
Protocol: In FIG. 6B, HT-29 colon cancer cells were treated with paricalcitol (10^−7M) for 0, 6, 12 or 24 hrs and RNA was harvested. Expression of 24 hydroxylase mRNA was analysed by RT-PCR. The amounts of mRNA were normalized by comparison to 18S RNA. […] For the PCR analysis, RNA extraction and reverse transcription were done by TRIzole (Invitrogen, Carlsbad, Calif.) and reverse transcriptase (Promega, Madison, Wis.). A twenty-microliter volume of cDNA was prepared from 1 μg of RNA. cDNAs were amplified by PCR with specific primers for 24-hydroxylase and 18S. The cycle number was 25 for 18S and 32 for 24-hydroxylase. PCR product was separated on a 2% agarose gel, stained with ethidium bromide, and photographed.
For a further data set, the system named is ARH-77 myeloma cells. Briefly: MTT assay. Type of data set: cell-based, human. (In general: Tetrazolium dyes change colour on reduction, which living cells bring about.)
Data set [3] has as its system HL-60 cells. The experiment in a line: Morphological analysis, Wright-Giemza stain. Type of data set: cell-based, human. Conditions: 10^−7M, 120 hrs. The method, then: (A) Cell cycle analysis of HL-60 cells by flow cytometry. HL-60 cells were cultured with paricalcitol (10^−7 M) for 72 hrs, harvested and stained with propidium iodine (PI). Control cells were treated with vehicle alone. Results represent the mean±SD of three independent experiments. (B) HL-60 or NB-4 cells were treated with either paricalcitol (10^−7 M) or 1,25(OH)2D3 (10^−7 M). Cell lysates were prepared after 72 hrs and analyzed by Western blot with a series of antibodies (p21WAF1, p27KIP1, PTEN). Control cells were treated with vehicle alone. The amounts of protein were normalized by comparison to levels of GAPDH. […] Dashed line indicates negative control antibody; black area, CD14 antibody. CD14 positive cells are in the area shown by M2. (D) HL-60 cells were cultured with paricalcitol (10^−7 M) for 120 hrs, fixed and stained with Wright-Giemza stain for morphological analysis.

The conditions of data set [4]: humans, cited from earlier work.
The next data set concerns HT-29 cells. Briefly: Western blot of cell lysates. The conditions noted are these: 10^−7M, 72 hrs. The data set is classed as cell-based, human. Here is the method:
Western blot analysis was used to determine the levels of proteins involved in cell cycle and differentiation. […] After centrifugation at 15,000×g for 15 min at 4° C., the suspension was collected. Protein concentrations were quantitated using the Bio-Rad assay (Bio-Rad Labolatories, Hercules, Calif.). […] The blots were developed using the Supersignal West Pico Chemiluminescent Substrate Kit (Pierce, Rockford, Ill.). In FIG. 4B, HT-29 cells were exposed to either paricalcitol (10^−7M) or 1,25(OH)2D3(10^−7M). Cell lysates were prepared after 72 hrs of culture and analyzed by Western blot. The Western blot was probed sequentially with antibodies for p27KIP1, p21WAF1, cyclin D1, c-myc and E-Cadherin (antibodies from Santa Cruz Biotechnology) as described in Example II. Control cells were treated with vehicle alone. The quantity of protein was normalized by comparison to the amount of GAPDH. In FIG. 4C, HT-29 and SW837 cells were cultured with either paricalcitol (10^−7M) or 1,25(OH)2D3 (10^−7M) for 72 hrs. Cell lysates were prepared and analyzed by Western blot which was probed sequentially with antibodies to COX-1 and COX-2 (Santa Cruz Biotechnology). Control cells were treated with vehicle alone. The amount of protein was normalized by comparison to the quantity of GAPDH.

The test system of data set [5] is 24-hydroxylase mRNA. The experiment in a line: RT-PCR of 24-hydroxylase mRNA, spleen mononuclear cells of wild type mice. The data set is classed as cell-based. The conditions noted are these: 10^−8 M. Here is the method:
In FIG. 6B, HT-29 colon cancer cells were treated with paricalcitol (10^−7M) for 0, 6, 12 or 24 hrs and RNA was harvested. Expression of 24 hydroxylase mRNA was analysed by RT-PCR. The amounts of mRNA were normalized by comparison to 18S RNA. In FIG. 6C, mononuclear cells extracted from spleens of either wild type or VDR knock-out mice were treated with paricalcitol (10^−8M) for either 12 or 24 hrs, and RNA was harvested. Expression of 24 hydroxylase mRNA was analysed by RT-PCR. The amounts of mRNA were normalized by comparison to 18S RNA. For the PCR analysis, RNA extraction and reverse transcription were done by TRIzole (Invitrogen, Carlsbad, Calif.) and reverse transcriptase (Promega, Madison, Wis.). A twenty-microliter volume of cDNA was prepared from 1 μg of RNA. cDNAs were amplified by PCR with specific primers for 24-hydroxylase and 18S. The cycle number was 25 for 18S and 32 for 24-hydroxylase. […] The VDR KO Mouse and Colony-Forming Assay was performed as follows. VDR KO mice were generated and genotypes were determined by Southern Blot Analysis as described previously (O'Kelly et al., supra, 2002). For experiments using VDR KO mice, their wild-type (WT) littermates were used as controls. Mice were killed by cervical neck dislocation. […] Colonies were counted after 2 weeks. […]

Consider 1 molecule from patent US20050054620A1, “Paricalcitol as a chemotherapeutic agent” (priority 2003, published 2005).

Take `C[C@H](/C=C/[C@H](C)C(C)(C)O)[C@H]1CC[C@H]2/C(=C/C=C3C[C@@H](O)C[C@H](O)C3)CCC[C@]12C` [paricalcitol, 19-nor-1,25, (OH)2D3]: in the data set on HL-60 cells [1], the “decrease of cells in S phase” value came out at 33%, the “increase of cells in G0/G1 phase” value came to 16% and the “increase of cells in G2/M phase” value is reported as 17%. For the same molecule, the “time of exposure within which 24-hydroxylase mRNA expression was induced” value in the data set on 24-hydroxylase mRNA [2] is at most 6 h. Besides, the antiproliferative effect entry in the data set with ARH-77 myeloma cells was “somewhat less than the effect on NCI-H929 cells”. The morphological examination entry with HL-60 cells [3] is recorded as “monocytic differentiation”. In addition, the dose safely given result in data set [4] is given as “up to 16.8 mg”. Moreover, in data set [4] (compared with 1,25(OH)2D3), the hypercalcemia entry is given as “less likely to cause hypercalcemia”. In the data set on HT-29 cells, the “decrease of COX-2 expression” value is 40%, the “decrease of c-myc expression” value is recorded as around 40%, the “decrease of cyclin D1 expression” value is listed as “about 50%” and the “effect on COX-1 expression” value was “without affecting”. Moreover, in the data set on HT-29 cells, the “increase of E-cadherin” value was “about 6 fold”, the “increase of p21WAF1 protein level” value is given as “about 5 fold” and the “increase of p27KIP1 protein level” value is around 6 fold. In the data set with 24-hydroxylase mRNA [5], the “time within which 24-hydroxylase mRNA expression was induced” value was at most 12 h.
